Among the test systems are UO-31; OVCAR-8; Hs-578T; SK-MEL-28; U-251; OVCAR-5; SF-539; MDA-MB-435; MOLT-4; MDA-N; PC-3; UACC-257; K562; SNB-19; HOP-92; HOP-62; NCI-H226; HL-60; A498.
Common to all, as to assay: NCI tumour cell line growth inhibition, 48 h

SMILES strings stand for the structures.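 Compound exposure: 48 hours, 5 concentrations, 96-well plates. Abbreviation: GI50, concentration required for 50% inhibition of growth.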 The source made the active and inactive calls. Cut-off read from the data, not from the text of the source: active = GI50 up to about 1.1 µM and inactive = higher. A value given as a limit tells only on which side of the number the result lay.

In the case of `COc1cc(/C=C2/C[C@H]3[C@@H]4CC=C5C[C@@H](OC(C)=O)CC[C@]5(C)[C@H]4CC[C@]3(C)NC2=O)cc(OC)c1OC`, the GI50 is 18.1 µM (inactive) with UO-31; 27.8 µM (inactive) in the experiment on OVCAR-8; 24.2 µM (inactive) in the experiment on Hs-578T; 26.2 µM (inactive) in the experiment on SK-MEL-28; 19.5 µM (inactive) in the experiment on U-251; 27 µM (inactive) in the experiment on OVCAR-5. For the same compound, the GI50 in the experiment with SF-539 was 13.1 µM (inactive); in the experiment with MDA-MB-435 it was 36.3 µM (inactive); in the experiment on MOLT-4 it was 16.9 µM (inactive); in the experiment with MDA-N, 42.7 µM (inactive); in the experiment with PC-3 it was 19 µM (inactive); in the experiment with UACC-257, 26.5 µM (inactive). Further, the GI50 in the experiment on K562 is 45.3 µM (inactive); in the experiment on SNB-19, 15.9 µM (inactive); in the experiment with HOP-92, 24.6 µM (inactive); in the experiment on HOP-62, 26.6 µM (inactive).
For the compound `FC(F)(F)c1ccc2nc(Sc3ccc4ccccc4c3)cnc2c1`, the GI50 is > 100 µM (inactive) in the experiment on UO-31; > 100 µM (inactive) with OVCAR-8; > 100 µM (inactive) with Hs-578T; > 100 µM (inactive) in the experiment with SK-MEL-28; 25.2 µM (inactive) with U-251; > 100 µM (inactive) in the experiment with OVCAR-5. Also, the GI50 in the experiment on SF-539 was 36.3 µM (inactive); in the experiment on NCI-H226 it was 87.9 µM (inactive); in the experiment on MDA-MB-435, 55.2 µM (inactive); in the experiment with MOLT-4, 24.5 µM (inactive); in the experiment with MDA-N, 38.5 µM (inactive); with UACC-257, 43.8 µM (inactive). The GI50 in the experiment with HL-60 is 31.6 µM (inactive); in the experiment with K562, 45.8 µM (inactive); in the experiment with A498, 28.6 µM (inactive); with SNB-19 it was > 100 µM (inactive); with HOP-92, > 100 µM (inactive); in the experiment on HOP-62 it was 74.8 µM (inactive).
As for `C[C@@]12C=CC3C/C(=N\C(N)=S)C=C(CCCC4OCCO4)[C@]3(CC1)C2` (stereo partly drawn), the GI50 in the experiment on UO-31 was 17.6 µM (inactive); in the experiment on OVCAR-8 it was 21.8 µM (inactive); in the experiment with Hs-578T, 28.5 µM (inactive); in the experiment on SK-MEL-28 it was 18 µM (inactive); in the experiment on U-251, 20.5 µM (inactive); in the experiment on OVCAR-5 it was 15.7 µM (inactive). Moreover, the GI50 in the experiment with SF-539 is 17.9 µM (inactive); in the experiment on NCI-H226, 23.3 µM (inactive); with MDA-MB-435 it was 16.9 µM (inactive); in the experiment on MOLT-4 it was 9.44 µM (inactive); in the experiment with MDA-N it was 16 µM (inactive); in the experiment on PC-3, 17.4 µM (inactive). For the same compound, the GI50 in the experiment on UACC-257 is 18.8 µM (inactive); in the experiment on K562, 17.9 µM (inactive); in the experiment on A498, 15.5 µM (inactive); with SNB-19, 34.5 µM (inactive); in the experiment on HOP-92, 34.4 µM (inactive); in the experiment on HOP-62 it was 29.5 µM (inactive).
Regarding `CC[n+]1[b-](C(C)(C)C)n(/N=C/C(C)(C)C)[b-](C(C)(C)C)[n+]1CC`, the GI50 in the experiment with UO-31, in the experiment on OVCAR-8, with Hs-578T, with SK-MEL-28, in the experiment with U-251 and in the experiment with OVCAR-5 was > 100 µM (inactive) in each case. Also, the GI50 in the experiment with SF-539, in the experiment on NCI-H226, with MDA-MB-435, in the experiment on MOLT-4, in the experiment with MDA-N and with PC-3 was > 100 µM (inactive) throughout. In addition, the GI50 with UACC-257 is > 100 µM (inactive); in the experiment with K562, 67.1 µM (inactive); with SNB-19, > 100 µM (inactive); in the experiment on HOP-62, > 100 µM (inactive).
On to `CC(C)CCC[C@@H](C)[C@H]1CC[C@H]2[C@@H]3CC=C4C[C@@H](OC(=O)c5cccc6c(=O)c7ccccc7[nH]c56)CC[C@]4(C)[C@H]3CC[C@]12C`, for which the GI50 in the experiment with UO-31, in the experiment on OVCAR-8, in the experiment with Hs-578T, in the experiment with SK-MEL-28, in the experiment with U-251 and in the experiment with OVCAR-5 was > 75 µM (inactive) throughout. The GI50 in the experiment on SF-539 was > 75 µM (inactive); with NCI-H226, > 75 µM (inactive); with MDA-MB-435, > 75 µM (inactive); in the experiment with MOLT-4 it was > 75 µM (inactive); with MDA-N, 1.56 µM (inactive); with PC-3, > 75 µM (inactive). The GI50 is > 75 µM (inactive) with UACC-257; 43.7 µM (inactive) in the experiment with K562; > 75 µM (inactive) in the experiment on A498; > 75 µM (inactive) with SNB-19; > 75 µM (inactive) in the experiment with HOP-92; 34.9 µM (inactive) with HOP-62.
On to `Cc1ccc(/N=N/C(=N/c2ccccc2)c2ccc(N(CCC#N)CCC#N)cc2)cc1`, for which the GI50 is 60.3 µM (inactive) in the experiment on UO-31; 26.1 µM (inactive) with OVCAR-8; 37 µM (inactive) in the experiment on Hs-578T; 39.8 µM (inactive) with SK-MEL-28; 15.8 µM (inactive) in the experiment with U-251; 54.2 µM (inactive) in the experiment on OVCAR-5. The GI50 was 28.8 µM (inactive) in the experiment on SF-539; 27.7 µM (inactive) in the experiment on NCI-H226; 38 µM (inactive) in the experiment on MDA-MB-435; 43.7 µM (inactive) in the experiment on MOLT-4; 31.6 µM (inactive) in the experiment on MDA-N; 17.9 µM (inactive) in the experiment on PC-3. The GI50 in the experiment on UACC-257 is 19.3 µM (inactive); with K562, 47.3 µM (inactive); in the experiment on A498, 45.4 µM (inactive); with SNB-19, 37.5 µM (inactive); in the experiment with HOP-92, 22 µM (inactive); in the experiment with HOP-62 it was 30.1 µM (inactive).
Turning to `COC1(OC)C[C@H](C)[C@@]23O[C@]24c2cc(O)c5c(c2N[C@H]3C#C/C=C\C#C[C@]14O)C(=O)c1ccccc1C5=O`, the GI50 in the experiment with UO-31 was 0.005 µM (active); in the experiment with OVCAR-8, 0.005 µM (active); with Hs-578T it was 0.0705 µM (active); with SK-MEL-28 it was 0.00775 µM (active); in the experiment on U-251 it was 0.005 µM (active); in the experiment with OVCAR-5, 0.00692 µM (active). Further, the GI50 in the experiment with NCI-H226 is 0.005 µM (active); with MDA-MB-435, 0.00703 µM (active); with MDA-N, 0.00597 µM (active); in the experiment on PC-3, 0.005 µM (active); in the experiment on UACC-257 it was 0.005 µM (active); with K562, 0.005 µM (active). For the same compound, the GI50 in the experiment on A498 was 0.00119 µM (active); in the experiment with SNB-19, 0.005 µM (active); in the experiment with HOP-92 it was 0.00107 µM (active); with HOP-62 it was 0.005 µM (active).
`CC(=O)Oc1ccc2cc(Oc3cc(Cl)c(Cl)cc3Cl)c(=O)oc2c1`: the GI50 in the experiment on UO-31 is 13.1 µM (inactive); in the experiment on OVCAR-8, 17.1 µM (inactive); in the experiment on Hs-578T, 22.2 µM (inactive); in the experiment on SK-MEL-28 it was 26.2 µM (inactive); in the experiment with U-251 it was 15.6 µM (inactive); in the experiment on OVCAR-5 it was 18.5 µM (inactive). Moreover, the GI50 is 16 µM (inactive) in the experiment on SF-539; 16.9 µM (inactive) in the experiment with NCI-H226; 11.9 µM (inactive) with MOLT-4; 14.6 µM (inactive) in the experiment with MDA-N; 16.1 µM (inactive) in the experiment on PC-3; 20.6 µM (inactive) in the experiment with UACC-257. Moreover, the GI50 in the experiment on HL-60 is 22.7 µM (inactive); in the experiment with K562, 13.2 µM (inactive); with A498, 17.7 µM (inactive); in the experiment with SNB-19, 29.6 µM (inactive); with HOP-92, 17.8 µM (inactive); with HOP-62, 17.3 µM (inactive).
In the case of `CC1=CC(=O)N(n2c(Cc3ccccc3)n[nH]c2=O)C1=O`, the GI50 in the experiment with UO-31, in the experiment on OVCAR-8, in the experiment with Hs-578T, in the experiment on U-251, with OVCAR-5 and with SF-539 was > 100 µM (inactive) each time. Also, the GI50 with NCI-H226 is > 100 µM (inactive); in the experiment on MDA-MB-435, > 100 µM (inactive); with MOLT-4 it was 33.9 µM (inactive); with MDA-N it was > 100 µM (inactive); in the experiment with PC-3 it was 93.5 µM (inactive); in the experiment on UACC-257, > 100 µM (inactive). The GI50 is 71.9 µM (inactive) in the experiment on K562, > 100 µM (inactive) in the experiment with A498, > 100 µM (inactive) with SNB-19 and > 100 µM (inactive) in the experiment with HOP-92.
As to `Nc1nc(N)c2nc(CNc3ccc(C(=O)NC(CCCCNC(=O)c4ccccc4C(=O)O)C(=O)O)cc3)cnc2n1` (stereo not drawn), the GI50 in the experiment on UO-31 is 0.00776 µM (active); with OVCAR-8, 0.01 µM (active); in the experiment on Hs-578T it was > 100 µM (inactive); in the experiment on SK-MEL-28 it was < 0.0275 µM (active); with U-251, 0.01 µM (active); with OVCAR-5, > 85.3 µM (inactive). Besides, the GI50 was < 0.0133 µM (active) in the experiment on SF-539; > 100 µM (inactive) in the experiment on NCI-H226; 0.01 µM (active) in the experiment with MDA-MB-435; 0.01 µM (active) in the experiment with MOLT-4; 0.01 µM (active) in the experiment on MDA-N; 0.01 µM (active) in the experiment on PC-3. The GI50 in the experiment with K562 is 0.01 µM (active); in the experiment on A498, 0.0738 µM (active); in the experiment with SNB-19, < 0.0158 µM (active); in the experiment with HOP-92 it was 0.445 µM (active); in the experiment on HOP-62, 0.01 µM (active).
With `NCCCN1CCN(c2ccccc2)CC1`, the GI50 in the experiment on UO-31, in the experiment with OVCAR-8, with Hs-578T, in the experiment with SK-MEL-28, in the experiment on U-251 and with OVCAR-5 was > 100 µM (inactive) throughout. In addition, the GI50 in the experiment with NCI-H226 is > 100 µM (inactive); in the experiment with MDA-MB-435, 51.2 µM (inactive); with MOLT-4, 79.3 µM (inactive); with MDA-N it was > 100 µM (inactive); in the experiment on PC-3, 33.4 µM (inactive); in the experiment on UACC-257, > 100 µM (inactive). The GI50 in the experiment on K562 is > 100 µM (inactive); with A498, > 100 µM (inactive); in the experiment with SNB-19, > 100 µM (inactive); with HOP-92 it was 86.3 µM (inactive); with HOP-62 it was 10.9 µM (inactive).

Values taken from ChEMBL document CHEMBL1201862, “PubChem BioAssay data set” (2004).
